{
  "source": "PubChem BioAssay AID720696",
  "about": "(Broad Institute, 2013)",
  "test_system": "Clone20 osteoblast Shn3 3'UTR firefly luciferase, 24 h",
  "assay": "Shn3 3'UTR reporter inhibitors, dose response, cell-based, luminescence, dry powder (AID 720696)",
  "data": [
    {"molecule": "Cc1ccc2cc(CN(CC3CCCO3)C(=O)NC3CCCCC3)c(=O)[nH]c2c1C", "note": "(stereo not drawn)", "values": [
      {"measurement": "AC50", "value": 5220, "unit": "nM"}
    ]},
    {"molecule": "Cc1cc(N2CCCC2=O)cc(C)c1S(=O)(=O)NCCOc1ccc(C(C)(C)C)cc1", "values": [
      {"measurement": "AC50", "value": 797, "unit": "nM"}
    ]},
    {"molecule": "COc1cc2ncnc(N[C@H](C)c3ccccc3)c2cc1OC", "values": [
      {"measurement": "AC50", "value": 5130, "unit": "nM"}
    ]},
    {"molecule": "CCOC(=O)C1(Cc2ccc(Cl)cc2)CCN(C(C)Cc2ccc(O)c(OC)c2)CC1", "note": "(stereo not drawn)", "values": [
      {"measurement": "AC50", "value": 1620, "unit": "nM"}
    ]},
    {"molecule": "Nc1nonc1C(=O)NCCNCc1cc(Br)ccc1OCc1ccc(F)cc1", "values": [
      {"measurement": "AC50", "value": 2030, "unit": "nM"}
    ]},
    {"molecule": "COc1ccc2c(c1)c(CC(=O)Nc1cc(C)ccc1C)c(C)n2C(=O)c1ccc(Cl)cc1", "values": [
      {"measurement": "AC50", "value": 3240, "unit": "nM"}
    ]},
    {"molecule": "O=c1c2ccccc2nc2n1C(CSCc1ccc(Cl)cc1Cl)CS2", "note": "(stereo not drawn)", "values": [
      {"measurement": "AC50", "value": 2010, "unit": "nM"}
    ]},
    {"molecule": "COc1cc(CN2CCc3ccccc3C2)ccc1O", "values": [
      {"measurement": "AC50", "value": 2090, "unit": "nM"}
    ]},
    {"molecule": "CC(C)[C@H](NC(=O)OC(C)(C)C)c1nnc(S(=O)(=O)Cc2c(F)cccc2Cl)o1", "values": [
      {"measurement": "AC50", "value": 17100, "unit": "nM"}
    ]},
    {"molecule": "CN(CC(=O)Nc1cccc(S(=O)(=O)N2CCOCC2)c1)CC(=O)Nc1ccc(Cl)c(C(F)(F)F)c1", "values": [
      {"measurement": "AC50", "value": 877, "unit": "nM"}
    ]},
    {"molecule": "CN(C(=O)COc1ccccc1C(=O)NCCOc1ccccc1)c1ccccc1", "values": [
      {"measurement": "AC50", "value": 1920, "unit": "nM"}
    ]},
    {"molecule": "CN(C)c1nc(-c2ccccn2)nnc1-c1ccccc1", "values": [
      {"measurement": "AC50", "value": 2620, "unit": "nM"}
    ]},
    {"molecule": "COc1ccc(Nc2nc(N3CCCCC3)c3ccccc3n2)cc1", "values": [
      {"measurement": "AC50", "value": 1100, "unit": "nM"}
    ]},
    {"molecule": "Cc1cc2c(cc(C(=O)N3CCC(C(=O)NC4CCCC4)CC3)n2Cc2c(F)cccc2Cl)o1", "values": [
      {"measurement": "AC50", "value": 21300, "unit": "nM"}
    ]},
    {"molecule": "Fc1ccc(-n2nnnc2-c2cnc(-c3cccs3)nc2C(F)(F)F)cc1", "values": [
      {"measurement": "AC50", "value": 2760, "unit": "nM"}
    ]},
    {"molecule": "CC(=O)Nc1cccc(NC(=O)CSc2ncc(-c3ccc(Cl)cc3)n2Cc2ccco2)c1", "values": [
      {"measurement": "AC50", "value": 3380, "unit": "nM"}
    ]},
    {"molecule": "CCOC(=O)C1CCN(C(=O)c2ccc(OCC(=O)Nc3cccc(C(F)(F)F)c3)c(OC)c2)CC1", "values": [
      {"measurement": "AC50", "value": 1400, "unit": "nM"}
    ]},
    {"molecule": "COc1ccc(NS(=O)(=O)c2ccc(C(=O)N3CCCCCC3)cc2)cc1", "values": [
      {"measurement": "AC50", "value": 3700, "unit": "nM"}
    ]},
    {"molecule": "CCCOc1ccccc1C1CC(=O)Nc2cc3c(cc21)OCO3", "note": "(stereo not drawn)", "values": [
      {"measurement": "AC50", "value": 2160, "unit": "nM"}
    ]},
    {"molecule": "CN(C)S(=O)(=O)c1cccc(NC(=O)c2cccc(S(=O)(=O)N3CCc4ccccc43)c2)c1", "values": [
      {"measurement": "AC50", "value": 2410, "unit": "nM"}
    ]},
    {"molecule": "CC(C)(C)NC(=O)CSc1nc2ccc(NC(=O)CSc3nnnn3Cc3ccccc3)cc2s1", "values": [
      {"measurement": "AC50", "value": 2140, "unit": "nM"}
    ]},
    {"molecule": "CC(=O)N1CCN(C(=O)CCc2cc(C(C)(C)C)c(O)c(C(C)(C)C)c2)CC1", "values": [
      {"measurement": "AC50", "value": 4010, "unit": "nM"}
    ]},
    {"molecule": "CCOC(=O)c1ccc(NC(=O)Cn2ncc(Cl)c(Cl)c2=O)cc1", "values": [
      {"measurement": "AC50", "value": 2560, "unit": "nM"}
    ]},
    {"molecule": "O=C(c1nnsc1S(=O)c1ccc(Cl)cc1)N1CCOCC1", "note": "(stereo not drawn)", "values": [
      {"measurement": "AC50", "value": 5080, "unit": "nM"}
    ]},
    {"molecule": "COc1ccccc1N1CCN(c2ncc(C(=O)N3CCN(c4cccc(Cl)c4)CC3)c3ccccc23)CC1", "values": [
      {"measurement": "AC50", "value": 2540, "unit": "nM"}
    ]},
    {"molecule": "COc1ccc(NC(=O)c2nc(S(=O)(=O)Cc3cccc(C)c3)ncc2Cl)c(OC)c1", "values": [
      {"measurement": "AC50", "value": 3860, "unit": "nM"}
    ]},
    {"molecule": "CCCc1nnc(NC(=O)c2nc(S(=O)(=O)Cc3ccc(C)cc3)ncc2Cl)s1", "values": [
      {"measurement": "AC50", "value": 3830, "unit": "nM"}
    ]},
    {"molecule": "O=C1CSc2ccc(C(=O)Nc3cccc(S(=O)(=O)Nc4ccc(Br)cc4)c3)cc2N1", "values": [
      {"measurement": "AC50", "value": 1990, "unit": "nM"}
    ]}
  ]
}
